Reference: patent US8361968B2 (Takeda Pharmaceutical Company Limited, priority 2002, dated 2013)
Numbered stars: 1 amine (or outer) side, 2 acyl side, 3 side chain; on linkers, the order of the positions; unused ones are H or OH. Square brackets hold non-standard residues; d marks the D form. Ends that are not written are not given here. Peptide text beside a SMILES is read from it. * marks the point of attachment. X10 = NC(=O)C[C@@H](C(=O)[*:2])N(C[C@@H](N)Cc1ccc(O)cc1)[*:1]; Acetyl(2-(4-imidazolyl)) = O=C(Cc1c[nH]cn1)*; X1 = O=C([C@H](Cc1ccc2ccccc2n1)N[*:1])[*:2]; Phe(2-Cl) = N[C@@H](Cc1ccccc1Cl)C(=O)O; Phe(4-F) = N[C@@H](Cc1ccc(F)cc1)C(=O)O; 2Nal = N[C@@H](Cc1ccc2ccccc2c1)C(=O)O; Arg(Me) = CNC(=N)NCCC[C@H](N)C(=O)O; 4Pal = N[C@@H](Cc1ccncc1)C(=O)O; azaGly = NNC(=O)O

Biological target: hOT7T175 (Homo sapiens, UniProt Q969F8, L364H)
Experiment: Intracellular Ca ion level-increasing activity using FLIPR in hOT7T175/CHO
Format: cell-based
Design: expressed in transfected cells; host or cells: CHO/dhfr- cells, obtained from ATCC
Settings: relative, Metastin (1-54) = 1
Description: Assay for Intracellular Ca Ion Level-Increasing Activity Using Flipr
In accordance with the method described in JPA 2000-312590, the intracellular Ca ion level-increasing activity was measured using FLIPR.
The stable expression cell line hOT7T175 was acquired by transduction of expression plasmid pAK-rOT175 for animal cells into CHO/dhff cells, using CellPhect Transfection Kit (Amersham Pharmacia Biotech, Inc.). First, 240 μL of Buffer A (attached to CellPhect Transfection Kit) was added to 9.6 μg of plasmid DNA dissolved in 240 μl of distilled water, followed by stirring. After settling the mixture for 10 minutes, 480 μL of Buffer B (attached to CellPhect Transfection Kit) was added to the mixture, which was vigorously stirred to form DNA-containing liposomes. Then, 4×10^5 CHO/dhff cells (obtained from ATCC) were inoculated on a 60 mm Petri dish. […] After culturing the cells at 37° C. for 6 hours in 5% carbon dioxide gas, the cells were washed twice with serum-free Ham's F-12 medium and 3 ml of 15% glycerol was added to the cells in the Petri dish to treat for 2 minutes. The cells were again washed twice with serum-free Ham's F-12 medium followed by incubation in Ham's F-12 medium supplemented with 10% fetal bovine serum at 37° C. for 15 hours in 5% carbon dioxide gas. The cells were dispersed by trypsin treatment and recovered from the Petri dish. The recovered cells were inoculated on a 6-well plate in 1.25×10^4 cells/well and incubation was initiated at 37° C. in Dulbecco's modified Eagle medium (DMEM) medium (Nissui Seiyaku Co., Ltd.) containing 10% dialyzed fetal bovine serum (JRH BIOSCIENCES, Inc.) under 5% carbon dioxide gas. […] The medium was exchanged on Days 1 and 2 to remove the cells died.
The intracellular Ca ion level-increasing activity of the synthetic peptide in hOT7T175/CHO was determined using FLIPR (Molecular Devices, Inc.).
hOT7T175/CHO was subcultured in DMEM supplemented with 10% dialyzed fetal bovine serum (hereinafter abbreviated as dFBS) and provided for the experiment (hereinafter abbreviated as 10% dFBS/DMEM). The hOT7T175/CHO was suspended in 10% dFBS-DMEM in 15×10^4 cells/ml. The suspension was inoculated on a 96-well plate for FLIPR (Black Plate Clear Bottom, Coster, Inc.) at 200 μL each (3.0×10^4 cells/200 μL/well), followed by incubation at 37° C. overnight in a 5% CO2 incubator (hereinafter simply referred to as the cell plate). Then, 21 ml of HANKS/HBSS (9.8 g of HANKS, 0.35 g of sodium hydrogencarbonate, 20 ml of 1M HEPES; after adjusting the pH to 7.4 with 1N sodium hydroxide, the mixture was sterilized by filtration), 210 μl of 250 mM Probenecid and […] of fetal bovine serum (FBS) were mixed (HANKS/HBSS-Probenecid-FBS).
Furthermore, 2 vials of Fluo3-AM (50 μug/vial) were dissolved in 21 μL of dimethylsulfoxide and 21 μL of 20% Pluronic acid. The resulting solution was added to and mixed with 10 ml of HANKS/HBSS-Probenecid-FBS described above. After the culture medium was removed, the mixture was dispensed onto the cell plate in 100 μL each/well, followed by incubation at 37° C. for an hour in a 5% CO2 incubator (pigment loading). The peptide was dissolved in dimethylsulfoxide in 1×10^−3 M. The peptide solution was diluted with HANKS/HBSS containing 2.5 mM Probenecid, 0.2% BSA and 0.1% CHAPS.

Sequence of hOT7T175 (Q969F8 whole entry L364H): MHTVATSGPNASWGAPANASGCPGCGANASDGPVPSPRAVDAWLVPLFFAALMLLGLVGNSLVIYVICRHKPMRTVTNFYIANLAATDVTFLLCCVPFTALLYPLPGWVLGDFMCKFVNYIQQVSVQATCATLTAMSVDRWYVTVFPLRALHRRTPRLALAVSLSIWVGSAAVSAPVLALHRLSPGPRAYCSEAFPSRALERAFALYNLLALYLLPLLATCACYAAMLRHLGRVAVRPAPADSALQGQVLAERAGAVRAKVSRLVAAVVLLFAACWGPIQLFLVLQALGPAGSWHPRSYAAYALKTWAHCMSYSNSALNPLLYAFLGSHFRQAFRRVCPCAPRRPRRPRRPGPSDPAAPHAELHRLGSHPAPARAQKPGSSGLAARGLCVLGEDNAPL

Specific Activity (intracellular Ca ion level-increasing activity)	Compound
5	CNC(=N)NCCC[C@H](NC(=O)[C@H](CC(C)C)NC(=O)NNC(=O)[C@H](Cc1ccccc1)NC(=O)[C@H](CO)NC(=O)[C@H](CC(N)=O)NC(=O)[C@H](Cc1c[nH]c2ccccc12)NC(=O)[C@H](CC(N)=O)NC(=O)[C@H](N)Cc1ccc(O)cc1)C(=O)N[C@@H](Cc1ccc(F)cc1)C(N)=O [Compound No. 318, D-Tyr-Asn-Trp-Asn-Ser-Phe-AzaGly-Leu-Arg(Me)-Phe(4F)-NH2]
10	CNC(=N)NCCC[C@H](NC(=O)[C@H](CC(C)C)NC(=O)CNC(=O)[C@H](Cc1ccccc1)NC(=O)[C@H](C)NC(=O)[C@H](CC(N)=O)NC(=O)[C@H](Cc1c[nH]c2ccccc12)NC(=O)[C@H](CC(N)=O)NC(=O)[C@H](N)Cc1ccc(O)cc1)C(=O)N[C@@H](Cc1ccccc1)C(N)=O [Compound No. 212] (H-[dY]NWNAFGL[Arg(Me)]F-NH2)
1	CNC(=N)NCCC[C@H](NC(=O)[C@H](CC(C)C)NC(=O)NNC(=O)[C@H](Cc1ccccc1)NC(=O)[C@H](CO)NC(=O)[C@H](CC(N)=O)NC(=O)[C@H](Cc1ccncc1)NC(=O)[C@@H](CC(N)=O)NC(=O)[C@H](N)Cc1ccc(O)cc1)C(=O)N[C@@H](Cc1ccc(F)cc1)C(N)=O [Compound No. 317, D-Tyr-D-Asn-Pya(4)-Asn-Ser-Phe-AzaGly-Leu-Arg(Me)-Phe(4F)-NH2] (H-[dY][dN][4Pal]NSF[azaGly]L[Arg(Me)][Phe(4-F)]-NH2)
3	CNC(=N)NCCC[C@H](NC(=O)[C@H](CC(C)C)NC(=O)NNC(=O)[C@H](Cc1ccccc1)NC(=O)[C@H](CO)NC(=O)[C@H](CC(N)=O)NC(=O)[C@H](Cc1ccncc1)NC(=O)[C@@H](CC(N)=O)NC(=O)[C@@H](N)Cc1ccc(O)cc1)C(=O)N[C@@H](Cc1ccccc1)C(N)=O [Compound No. 304, Tyr-D-Asn-Pya(4)-Asn-Ser-Phe-AzaGly-Leu-Arg(Me)-Phe-NH2] (H-Y[dN][4Pal]NSF[azaGly]L[Arg(Me)]F-NH2)
10	CC(C)C[C@H](NC(=O)CNC(=O)[C@H](Cc1ccccc1)NC(=O)[C@H](CO)NC(=O)[C@H](CC(N)=O)NC(=O)[C@H](Cc1c[nH]c2ccccc12)NC(=O)[C@H](CC(N)=O)NC[C@@H](N)Cc1ccc(O)cc1)C(=O)N[C@@H](CCCNC(=N)N)C(=O)N[C@@H](Cc1ccccc1)C(N)=O [Compound No. 294] (H-[X10]WNSFGLRF-NH2)
1	CNC(=N)NCCC[C@H](NC(=O)[C@H](CC(C)C)NC(=O)NNC(=O)[C@H](Cc1ccccc1)NC(=O)[C@H](CO)NC(=O)[C@H](CC(N)=O)NC(=O)[C@H](Cc1ccccc1Cl)NC(=O)[C@H](CC(N)=O)NC(=O)[C@H](N)Cc1ccc(O)cc1)C(=O)N[C@@H](Cc1ccccc1)C(N)=O [Compound No. 247, D-Tyr-Asn-Phe(2Cl)-Asn-Ser-Phe-AzaGly-Leu-Arg(Me)-Phe-NH2] (H-[dY]N[Phe(2-Cl)]NSF[azaGly]L[Arg(Me)]F-NH2)
1	CNC(=N)NCCC[C@H](NC(=O)[C@H](CC(C)C)NC(=O)NNC(=O)[C@H](Cc1ccccc1)NC(=O)[C@H](CO)NC(=O)[C@H](CC(N)=O)NC(=O)[C@H](Cc1c[nH]c2ccccc12)NC(=O)[C@H](CC(N)=O)NC(=O)[C@@H](C)N)C(=O)N[C@@H](Cc1ccccc1)C(N)=O [Compound No. 259, D-Ala-Asn-Trp-Asn-Ser-Phe-AzaGly-Leu-Arg(Me)-Phe-NH2] (H-[dA]NWNSF[azaGly]L[Arg(Me)]F-NH2)

Further lines, the compound ahead of its results:

Compound	Specific Activity (intracellular Ca ion level-increasing activity)
D-Tyr-Asn-Trp-Gln-Ser-Phe-Gly-Leu-Arg(Me)-Phe-NH2 ([dY]NWQSFGL[Arg(Me)]F-NH2; N-terminus assumed; SMILES CNC(=N)NCCC[C@H](NC(=O)[C@H](CC(C)C)NC(=O)CNC(=O)[C@H](Cc1ccccc1)NC(=O)[C@H](CO)NC(=O)[C@H](CCC(N)=O)NC(=O)[C@H](Cc1c[nH]c2ccccc12)NC(=O)[C@H](CC(N)=O)NC(=O)[C@H](N)Cc1ccc(O)cc1)C(=O)N[C@@H](Cc1ccccc1)C(N)=O) [Compound No. 209]	½
CNC(=N)NCCC[C@H](NC(=O)[C@H](CC(C)C)NC(=O)[C@H](C)NC(=O)[C@H](Cc1ccccc1)NC(=O)[C@H](CO)NC(=O)[C@H](CC(N)=O)NC(=O)[C@H](Cc1c[nH]c2ccccc12)NC(=O)[C@H](CC(N)=O)NC(=O)[C@H](N)Cc1ccc(O)cc1)C(=O)N[C@@H](Cc1ccccc1)C(N)=O [Compound No. 204] (H-[dY]NWNSFAL[Arg(Me)]F-NH2)	5
CCCNC(=N)NCCC[C@H](NC(=O)[C@H](CC(C)C)NC(=O)CNC(=O)[C@H](Cc1ccccc1)NC(=O)[C@H](CO)NC(=O)[C@H](CC(N)=O)NC(=O)[C@H](Cc1c[nH]c2ccccc12)NC(=O)[C@H](CC(N)=O)NC(=O)[C@H](N)Cc1ccc(O)cc1)C(=O)N[C@@H](Cc1ccccc1)C(N)=O [Compound No. 193]	001
CC(C)C[C@H](NC(=O)CNC(=O)[C@H](Cc1ccccc1)NC(=O)[C@H](CO)NC(=O)[C@H](CC(N)=O)NC(=O)[C@H](Cc1c[nH]c2ccccc12)NC(=O)[C@H](CC(N)=O)NC(=O)[C@@H](N)Cc1ccc(O)cc1)C(=O)N[C@@H](CCCNC(=N)N)C(=O)N[C@@H](Cc1ccc([N+](=O)[O-])cc1)C(N)=O [Compound No. 132]	10
CC(C)C[C@H](NC(=O)CNC(=O)[C@H](Cc1ccccc1)NC(=O)[C@H](CO)NC(=O)[C@H](CC(N)=O)NC(=O)[C@@H](Cc1c[nH]c2ccccc12)NC(=O)[C@H](CC(N)=O)NC(=O)[C@@H](N)Cc1ccc(O)cc1)C(=O)N[C@@H](CCCNC(=N)N)C(=O)N[C@@H](Cc1ccccc1)C(N)=O [Compound No. 40]	30
CC(C)C[C@H](NC(=O)CNC(=O)[C@H](Cc1ccccc1)NC(=O)[C@H](CO)NC(=O)[C@H](CC(N)=O)NC(=O)[C@H](Cc1c[nH]c2ccccc12)NC(=O)[C@H](CC(N)=O)NC(=O)[C@@H](N)Cc1ccc(O)cc1)C(=O)N[C@@H](CCCNC(=N)N)C(=O)N[C@@H](Cc1ccc2ccccc2c1)C(N)=O [Compound No. 110] (H-YNWNSFGLR[2Nal]-NH2)	20
CNC(=N)NCCC[C@H](NC(=O)[C@H](CC(C)C)NC(=O)NNC(=O)[C@H](Cc1ccccc1)NC(=O)[C@H](CO)NC(=O)[C@H](CC(N)=O)NC(=O)Cc1c[nH]cn1)C(=O)N[C@@H](Cc1ccccc1)C(N)=O [Compound No. 323, 4-Imidazoleacetyl-Asn-Ser-Phe-AzaGly-Leu-Arg(Me)-Phe-NH2] ({Acetyl(2-(4-imidazolyl))}-NSF[azaGly]L[Arg(Me)]F-NH2)	1
D-Tyr-Asn-Trp-Asn-Ser-Phe-Ala-Leu-Arg(Me)-Phe-NH2 ([dY]NWNSFAL[Arg(Me)]F-NH2; N-terminus assumed; SMILES CNC(=N)NCCC[C@H](NC(=O)[C@H](CC(C)C)NC(=O)[C@H](C)NC(=O)[C@H](Cc1ccccc1)NC(=O)[C@H](CO)NC(=O)[C@H](CC(N)=O)NC(=O)[C@H](Cc1c[nH]c2ccccc12)NC(=O)[C@H](CC(N)=O)NC(=O)[C@H](N)Cc1ccc(O)cc1)C(=O)N[C@@H](Cc1ccccc1)C(N)=O) [Compound No. 173]	1
Tyr-Asn-Trp-Asn-Ser-Phe-Gly-Ala-Arg-Phe-NH2 (YNWNSFGARF-NH2) [Compound No. 45]	1
CC(C)C[C@H](NC(=O)CNC(=O)[C@H](Cc1ccccc1)NC(=O)[C@H](CO)NC(=O)[C@H](CC(N)=O)NC(=O)[C@H](Cc1c[nH]c2ccccc12)NC(=O)[C@H](CC(N)=O)NC(=O)[C@@H](N)Cc1ccc(O)cc1)C(=O)N[C@@H](CCCNC(=N)N)C(=O)N[C@@H](Cc1ccc2ccccc2n1)C(N)=O [Compound No. 201] (H-YNWNSFGLR[X1]-NH2)	1
